Data taken from US20240008482A1, “METHOD OF IN[…] VIRUS USING A GLUT[…] COMPOSITION” (priority 2021, published 2024).

Legend:
MNV = type: cell-based, Murine Norovirus (MNV)
adenovirus type 5 = type: cell-based
poliovirus type 1 = type: cell-based
HCoV-229E = conditions: 2% glutaraldehyde; cited from earlier work
SARS-CoV (Hanoi strain) = conditions: cited from earlier work
SARS-CoV (Isolate FFM-1) = conditions: cited from earlier work

| Structure (SMILES) | reduction of viral titre achieved (MNV) [log10] | time after which a 4 log10 reduction is achieved (adenovirus type 5) [minutes] | reduction of viral titre achieved (poliovirus type 1) [log10] | effectiveness against the virus (HCoV-229E) | time to inactivate the virus (SARS-CoV (Hanoi strain)) [min] | time to inactivate the virus (SARS-CoV (Isolate FFM-1)) [min] |
| --- | --- | --- | --- | --- | --- | --- |
| C=O [formaldehyde] | < 4 | 30 | < 4 | – | – | – |
| O=CCCCC=O [glutaraldehyde] | – | – | – | effective | 5 | 2 |
